Assay results reported in ChEMBL document CHEMBL6178021, “Optimization of Tambjamines Active against Multiple Stages of Malaria Parasites” (J Med Chem, 2025).
Converted amounts (≈) assume the structure as drawn.

Key:
Plasmodium falciparum [1] = assay: microbe, parasite or virus in culture; settings: Dd2, 72 h
Description: Antiplasmodial activity against asexual blood-stage Plasmodium falciparum Dd2 using 2% haematocrit and 0.2% parasitemia assessed as reduction in fluorescence measured after 72 hrs by Malaria SYBR Green I-based Fluorescence (MSF) assay

in vitro [2] = settings: human, liver microsomes
[3] = Metabolic stability in human liver microsomes assessed as half life measured up to 60 mins by LC/MS analysis; format: ADME, Microsome
in vitro [4] = settings: mouse, liver microsomes
HepG2 = assay: Cytotoxicity against human HepG2 cells assessed as cell viability measured after 48 hrs by MTT assay; format: toxicity, cell-based; settings: hepg2
Plasmodium falciparum [5] = assay: Antiplasmodial activity against asexual blood-stage Plasmodium falciparum Tm90-C2B using 2% haematocrit and 0.2% parasitemia assessed as reduction in fluorescence measured after 72 hrs by Malaria SYBR Green I-based Fluorescence (MSF) assay; format: functional, organism-based
MDR1 (human) [6] = assay: Apparent permeability across basolateral to apical side in MDCK transfected with human MDR1 cells incubated for 1 hr by LC-MS analysis; settings: dog, MDCK-MDR1
[7] = Solubility of the compound in potassium phosphate buffer at pH 7.4 by UV-vis spectroscopy; settings: buffer
[8] = Metabolic stability in mouse liver microsomes assessed as half life measured up to 60 mins by LC/MS analysis; format: ADME, Microsome
Plasmodium yoelii = assay: Antimalarial activity against erythrocytic Plasmodium yoelii MRA-428 infected in CF1 mouse assessed as reduction in parasitemia at 10 mg/kg, po once daily for 4 days measured on day 5; format: functional; parameters: scale not given: the % may be the effect or the level left; settings: time 4 day
Plasmodium falciparum [9] = assay: microbe, parasite or virus in culture; settings: D6, 72 h
Description: Antiplasmodial activity against asexual blood-stage Plasmodium falciparum D6 using 2% haematocrit and 0.2% parasitemia assessed as reduction in fluorescence measured after 72 hrs by Malaria SYBR Green I-based Fluorescence (MSF) assay

MDR1 (human) [10] = assay: Apparent permeability across apical to basolateral side in MDCK transfected with human MDR1 cells incubated for 1 hr by LC-MS analysis; settings: dog, MDCK-MDR1

Row | Structure (SMILES) | IC50 (Plasmodium falciparum [1]) [nM] | microsomal CLint at 1 h (in vitro [2]) [µL/min/mg] | half-life [3] [h] | microsomal CLint at 1 h (in vitro [4]) [µL/min/mg] | IC50 (HepG2) [nM] | IC50 (Plasmodium falciparum [5]) [nM] | Papp B→A at 1 h (MDR1 (human) [6]) [×10⁻⁶ cm/s] | solubility [7] [µM] | half-life [8] [h] | Activity (Plasmodium yoelii) [%] | IC50 (Plasmodium falciparum [9]) [nM] | Papp A→B at 1 h (MDR1 (human) [10]) [×10⁻⁶ cm/s]
1 | CCC1=C(CC)/C(=C/NC2CCCCCC2)N=C1c1ccc(-c2ccccc2)[nH]1 | 30.2 | 61.5 | 0.375 | 115 | 5640 | 19.8 | 0.002 | 13.1 (≈ 5.08 µg/mL) | 0.202 | 10.5 |  | 
2 | CCC1=C(CC)/C(=C/NC2CCCCC2)N=C1c1ccc(-c2ccccc2)[nH]1 | 27.5 | 15.9 | > 1 | 17.6 | 4730 | 13.8 | 0.003 | < 3.125 | > 1 | 0 | 24.8 | 0.012
3 | CCC1=C(CC)/C(=C/NC2CCCCCCC2)N=C1c1ccc(Cl)[nH]1 | 99.1 | 10.1 | > 1 | 12.4 | 12300 | 101 | 0.04 | 5.37 (≈ 1.93 µg/mL) | > 1 |  | 186 | 0.28
4 | CCC1=C(CC)/C(=C/NC2CCCCC2)N=C1c1ccc(-c2ccc(OC)cc2)[nH]1 | 41.1 | 4.54 | > 1 | 21.8 | 6570 | 18 | 0.003 | < 3.125 | > 1 | 18.5 | 33.8 | 0.01
5 | CCC1=C(CC)/C(=C/NC2CCCCCCC2)N=C1c1ccc(-c2ccc(OC)cc2)[nH]1 | 22.5 |  | > 1 |  | 4960 | 25.4 | 0.012 | < 3.125 | > 1 | 0 | 14.5 | 0.054
6 | CCC1=C(CC)/C(=C/NC2CCCCCCC2)N=C1c1ccc(Cc2ccc(OC)cc2)[nH]1 | 10.8 |  | > 1 |  | 4310 | 13 | 0.12 | < 3.125 | > 1 | 0 |  | 0.074
7 | CCC1=C(CC)/C(=C/NC23C[C@H]4C[C@@H](C2)C[C@@H](C3)C4)N=C1c1ccccc1OC | > 2500 |  |  |  |  | > 2500 |  |  |  |  | > 2500 | 
8 | C(/NC1CCCCC1)=C1/N=C(c2ccc[nH]2)C(c2ccccc2)=C1c1ccccc1 | 1280 |  |  |  |  | 1700 |  |  |  |  | 1520 | 
9 | C(/NC12C[C@H]3C[C@@H](C1)C[C@@H](C2)C3)=C1/N=C(c2ccc[nH]2)C(Oc2ccccc2)=C1Oc1ccccc1 | 787 |  |  |  |  | 456 |  |  |  |  | 617 | 
10 | CCc1ccc(-c2[nH]c(C(=O)NC34C[C@H]5C[C@@H](C3)C[C@@H](C4)C5)c(CC)c2CC)[nH]1 | > 2500 |  |  |  |  | > 2500 |  |  |  |  | > 2500 | 
11 | CCC1=C(CC)/C(=C/NC23C[C@H]4C[C@@H](C2)C[C@@H](C3)C4)N=C1c1ccccc1OCCN(C)C | 2440 |  |  |  |  | 1730 |  |  |  |  | > 2500 | 
12 | CCC1=C(CC)/C(=C/NC2CCCCC2)N=C1c1ccc(C#N)[nH]1 | > 2500 |  |  |  |  | > 2500 |  |  |  |  | 1600 | 
13 | CCC1=C(CC)/C(=C/NC2CCCCCC2)N=C1c1ccc(C#N)[nH]1 | > 2500 |  |  |  |  | > 2500 |  |  |  |  | > 2500 | 
14 | CCC1=C(CC)/C(=C/NC23C[C@H]4C[C@@H](C2)C[C@@H](C3)C4)N=C1c1ccccc1OCCN(CC)CC | 774 |  |  |  |  | 1400 |  |  |  |  | 2070 | 
15 | C(/NC12C[C@H]3C[C@@H](C1)C[C@@H](C2)C3)=C1/N=C(c2ccc[nH]2)C(c2ccccc2)=C1c1ccccc1 | 359 |  |  |  |  | 351 |  |  |  |  | 412 | 
16 | CCc1c(C(=O)NC2CCCCC2)[nH]c(-c2ccc[nH]2)c1CC | > 2500 |  |  |  |  | > 2500 |  |  |  |  | > 2500 | 
